Assay results as given in patent US8629132B2, “Kinase inhibitors” (Genosco, priority 2009, dated 2014).

How the values were obtained:
PYK2 = biological target: T1, PYK2 (Homo sapiens, UniProt Q14289); assay: Kinase inhibition assay: PYK2; assay type: biochemical; conditions: at 1 μM concentration
T1 construct: Purified full-length human SYK, ZAP70, PIM1, PYK2; purchased Carna Biosciences
Experimental: (§1) Compounds of the present invention were tested for their capacity to inhibit a kinase panel which includes, but are not limited to, spleen tyrosine kinase (SYK), zeta-chain-associated protein kinase 70 (ZAP70), PTK2B protein tyrosine kinase 2 (PYK2), focal adhesion kinase (FAK), provirus integration of maloney kinase 1 (PIM1), rearranged during transfection kinase (RET), Fms-like tyrosine kinase 3 (FLT3), Janus kinase 2 (JAK2), and leucine-rich repeat kinase 2 (LRRK2).
(§2) Inhibition of SYK, ZAP70, PYK2, FAK, PIM1, RET, FLT3, JAK2 and LRRK2 Kinase Activity
(§3) Compounds of the invention were initially diluted to 10 mM in 100% DMSO (CALBIOCHEM™) for storage and made into kinase buffer solution to create a compound concentration ranging from 1 uM and 10 uM. Serial dilutions of compounds of the invention were dispensed into a 96-well plate (GREINER BIOSCIENCES™) at 6 μL each. Purified full-length human SYK, ZAP70, PIM1, PYK2 and truncated human FAK, RET, FLT3, JAK2, and LRRK2 (CARNA BIOSCIENCES™) were diluted in kinase buffer and added to the compound solutions and pre-incubated for 30 minutes at room temperature (1 hour for PYK2). […] The reaction mixture was incubated for 1 hour (2 hours for PYK2). Following the incubation, the stop solution made with EDTA, water, and Lance detection buffer ([…]™) was added (12μL each) to stop phosphorylation. […] The IC50 value of test compound was calculated at Gradpad Prism 5 unless specified otherwise.

FAK = biological target: T2, FAK (Homo sapiens, UniProt Q05397); assay: Kinase inhibition assay: FAK; assay type: biochemical; conditions: at 1 μM concentration
T2 construct: truncated human FAK, RET, FLT3, JAK2, and LRRK2; purchased Carna Biosciences
Experimental: as §1, §2, §3

ZAP70 = biological target: T3, ZAP70 (Homo sapiens, UniProt P43403); assay: Kinase inhibition assay: ZAP70; assay type: biochemical; conditions: at 1 μM concentration
T3 construct: Purified full-length human SYK, ZAP70, PIM1, PYK2; purchased Carna Biosciences
T3 sequence (P43403 1-619): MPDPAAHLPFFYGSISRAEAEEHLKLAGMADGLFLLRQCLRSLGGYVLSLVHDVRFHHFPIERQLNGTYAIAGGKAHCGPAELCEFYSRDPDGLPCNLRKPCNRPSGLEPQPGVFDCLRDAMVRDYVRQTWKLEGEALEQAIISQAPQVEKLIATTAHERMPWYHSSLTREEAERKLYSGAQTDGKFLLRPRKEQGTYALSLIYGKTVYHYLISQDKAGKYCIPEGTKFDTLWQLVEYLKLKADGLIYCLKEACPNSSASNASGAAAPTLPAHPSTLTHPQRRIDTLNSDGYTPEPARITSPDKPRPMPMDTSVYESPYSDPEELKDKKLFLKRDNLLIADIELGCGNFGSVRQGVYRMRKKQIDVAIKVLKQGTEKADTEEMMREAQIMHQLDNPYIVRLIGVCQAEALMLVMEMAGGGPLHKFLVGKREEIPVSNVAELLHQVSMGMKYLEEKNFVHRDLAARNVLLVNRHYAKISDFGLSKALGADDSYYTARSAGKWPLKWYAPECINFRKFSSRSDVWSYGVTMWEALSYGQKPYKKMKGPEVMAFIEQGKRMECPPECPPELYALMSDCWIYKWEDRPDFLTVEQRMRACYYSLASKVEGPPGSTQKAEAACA
Experimental: as §1, §2, §3

SYK = biological target: T4, SYK (Homo sapiens, UniProt P43405); assay: Kinase inhibition assay: SYK; assay type: biochemical; conditions: at 1 μM concentration
T4 construct: Purified full-length human SYK, ZAP70, PIM1, PYK2; purchased Carna Biosciences
Experimental: as §1, §2, §3

FLT3 = biological target: T5, FLT3 (Homo sapiens, UniProt P36888); assay: Kinase inhibition assay: FLT3; assay type: biochemical
T5 construct: truncated human FAK, RET, FLT3, JAK2, and LRRK2; purchased Carna Biosciences
T5 sequence (P36888 564-993 limits assumed): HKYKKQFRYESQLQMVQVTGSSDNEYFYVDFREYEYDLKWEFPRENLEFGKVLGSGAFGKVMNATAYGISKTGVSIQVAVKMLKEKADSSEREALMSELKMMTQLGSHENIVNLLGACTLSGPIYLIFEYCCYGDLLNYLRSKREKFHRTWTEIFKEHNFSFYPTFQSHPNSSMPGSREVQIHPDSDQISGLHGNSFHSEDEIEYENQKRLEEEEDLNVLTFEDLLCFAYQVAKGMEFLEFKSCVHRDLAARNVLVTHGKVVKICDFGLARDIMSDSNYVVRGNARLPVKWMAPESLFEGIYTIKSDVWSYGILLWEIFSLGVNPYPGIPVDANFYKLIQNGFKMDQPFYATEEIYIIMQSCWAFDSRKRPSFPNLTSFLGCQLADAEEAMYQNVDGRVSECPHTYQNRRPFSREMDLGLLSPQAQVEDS
Experimental: as §1, §2, §3

JAK2 = JAK2 (Homo sapiens, UniProt O60674); assay: Kinase inhibition assay: JAK2; assay type: biochemical; set-up: truncated human FAK, RET, FLT3, JAK2, and LRRK2; purchased Carna Biosciences
Experimental: as §1, §2, §3

HEL cells = assay: Cell viability assay: JAK2 inhibition; assay type: cell-based, human; conditions: for IC50: Homo sapiens, 72-hour incubation, HEL cells expressing JAK2 V617F, read-out: Cell Viability: JAK2 kinase Inhibition HEL (IC50 nM)
Experimental: Compounds of the invention are tested for their effects on JAK2 inhibition in human erythroleukemic cell line (HEL) to illustrate potential efficacy at the cellular level. The Janus-associated kinase (JAK) family, comprised of four different protein tyrosine kinases JAK1, JAK2, JAK3, and TYK2, plays an important role in cellular survival, proliferation, and differentiation. V617F, a unique mutation in the JAK2 gene (a valine-to-phenylalanine substitution) results in constitutive kinase activity and promotes deregulated hematopoiesis. JAK2 V617F is frequently detected in myeloproliferative disorders (MPDs), a group of clonal hematopoietic stem cell disorders that include polycythemia vera (PV), essential thrombocythemia (ET), and idiopathic myelofibrosis (IMF), all of which have the potential to transform to acute myeloid leukemia. JAK2 V617F is constitutively phosphorylated and able to activate downstream signaling in the absence of cytokine stimulation.
Compounds of the present invention were tested for their effects on viability of HEL cells. For cell viability assay, HEL cells expressing human JAK2 V617F were obtained from the American Type Culture Collection (ATCC, Manassas, Va.). This cell line was maintained with Roswell Park Memorial Institute (RPMI) medium (HyClone™) containing 10 bovine calf serum (BCS; Hyclone™) supplemented iron. The HEL cells were seeded at 2×10^4 cells in 96 well culture plates, and serially diluted compound was then added. After a 72-hour incubation period at 37° C., viability of cells was measured using the ATPLite 1 step assay (Perkin-Elmer™) that is based on the quantification of ATP from viable cells. CellTiter Aqueous assay (Promega™) was also performed in parallel as an orthogonal assay. IC50 values were calculated using nonlinear regression and defined as the concentration needed for a 50 reduction in luminescence or absorbance treated versus untreated control cells (Prism™ Software).

RET = biological target: T6, RET (Homo sapiens, UniProt P07949); assay: Kinase inhibition assay: RET; assay type: biochemical
T6 construct: truncated human FAK, RET, FLT3, JAK2, and LRRK2; purchased Carna Biosciences
T6 sequence (P07949 658-1114 limits assumed): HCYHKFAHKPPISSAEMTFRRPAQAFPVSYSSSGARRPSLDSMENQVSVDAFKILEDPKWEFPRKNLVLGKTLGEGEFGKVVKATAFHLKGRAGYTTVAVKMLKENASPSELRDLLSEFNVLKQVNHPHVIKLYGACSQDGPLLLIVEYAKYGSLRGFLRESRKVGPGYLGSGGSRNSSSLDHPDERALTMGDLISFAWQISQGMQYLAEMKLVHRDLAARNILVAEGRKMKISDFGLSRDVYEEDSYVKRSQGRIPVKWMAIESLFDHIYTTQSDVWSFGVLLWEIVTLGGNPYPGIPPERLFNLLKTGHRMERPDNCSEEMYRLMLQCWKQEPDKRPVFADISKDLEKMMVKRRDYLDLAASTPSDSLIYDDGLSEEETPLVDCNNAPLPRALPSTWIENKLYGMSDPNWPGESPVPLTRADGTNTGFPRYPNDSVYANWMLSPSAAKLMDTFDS
Experimental: as §1, §2, §3

LRRK2 = biological target: T7, LRRK2 (Homo sapiens, UniProt Q5S007); assay: Kinase inhibition assay: LRRK2; assay type: biochemical; conditions: for inhibition at 1 µM: at 1 μM concentration
T7 construct: truncated human FAK, RET, FLT3, JAK2, and LRRK2; purchased Carna Biosciences
Experimental: as §1, §2, §3

MV4-11 cells = assay: Cell viability assay: FLT3-ITD-positive cells; assay type: cell-based, human; conditions: for IC50: Homo sapiens, MV4-11, 72-hour incubation, read-out: Viability of FLT3-ITD Induced Cancer Cell Line MV-4-11 (IC50 nM)
Experimental: Compounds of the invention were tested for their effects on inhibition of FLT3-ITD in human acute leukemia cell line (MV4-11). FLT3 is primarily expressed in immature hematopoietic progenitor as well as in mature myeloid cells. It belongs to type III receptor tyrosine kinase (RTK) family including KIT, FMS, and PDGFR. It is activated by binding to FL, which leads to increased kinase activity and activation of downstream signaling pathway including STATS, Ras, and PI3Kinase.
Compounds of the invention were tested for cell viability effect on MV4-11 cells. For cell viability assay, MV4-11 cells expressing human FLT3-ITD were obtained from the American Type Culture Collection (ATCC, Manassas, Va.). This cell line was maintained with an Roswell Park Memorial Institute (RPMI) medium (HyClone™) containing 10 bovine calf serum (BCS; Hyclone™) supplemented iron. The MV4-11 cells were seeded at 2×10^4 cells in 96-well culture plates, and serially diluted compound was then added. After a 72-hour incubation period at 37° C., cell viability was measured using the ATPLite 1 step assay (Perkin-Elmer™) that is based on the quantification of ATP from viable cells. CellTiter Aqueous assay (Promega™) was also performed in parallel as an orthogonal assay. IC50 values were calculated using nonlinear regression and defined as the concentration needed for a 50 reduction in luminescence or absorbance treated versus untreated control cells (Prism™ Software).

JAK2, sequence (O60674 826-1132 limits assumed): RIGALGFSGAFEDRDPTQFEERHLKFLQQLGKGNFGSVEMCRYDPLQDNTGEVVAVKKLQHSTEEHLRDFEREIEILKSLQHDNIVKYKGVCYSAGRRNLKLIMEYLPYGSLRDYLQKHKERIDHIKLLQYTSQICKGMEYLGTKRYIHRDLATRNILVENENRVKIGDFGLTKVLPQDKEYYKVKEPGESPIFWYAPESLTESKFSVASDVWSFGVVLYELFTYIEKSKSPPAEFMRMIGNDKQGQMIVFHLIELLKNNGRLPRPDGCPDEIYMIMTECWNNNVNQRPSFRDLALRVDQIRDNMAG
T7 sequence (Q5S007 970-2527 limits assumed): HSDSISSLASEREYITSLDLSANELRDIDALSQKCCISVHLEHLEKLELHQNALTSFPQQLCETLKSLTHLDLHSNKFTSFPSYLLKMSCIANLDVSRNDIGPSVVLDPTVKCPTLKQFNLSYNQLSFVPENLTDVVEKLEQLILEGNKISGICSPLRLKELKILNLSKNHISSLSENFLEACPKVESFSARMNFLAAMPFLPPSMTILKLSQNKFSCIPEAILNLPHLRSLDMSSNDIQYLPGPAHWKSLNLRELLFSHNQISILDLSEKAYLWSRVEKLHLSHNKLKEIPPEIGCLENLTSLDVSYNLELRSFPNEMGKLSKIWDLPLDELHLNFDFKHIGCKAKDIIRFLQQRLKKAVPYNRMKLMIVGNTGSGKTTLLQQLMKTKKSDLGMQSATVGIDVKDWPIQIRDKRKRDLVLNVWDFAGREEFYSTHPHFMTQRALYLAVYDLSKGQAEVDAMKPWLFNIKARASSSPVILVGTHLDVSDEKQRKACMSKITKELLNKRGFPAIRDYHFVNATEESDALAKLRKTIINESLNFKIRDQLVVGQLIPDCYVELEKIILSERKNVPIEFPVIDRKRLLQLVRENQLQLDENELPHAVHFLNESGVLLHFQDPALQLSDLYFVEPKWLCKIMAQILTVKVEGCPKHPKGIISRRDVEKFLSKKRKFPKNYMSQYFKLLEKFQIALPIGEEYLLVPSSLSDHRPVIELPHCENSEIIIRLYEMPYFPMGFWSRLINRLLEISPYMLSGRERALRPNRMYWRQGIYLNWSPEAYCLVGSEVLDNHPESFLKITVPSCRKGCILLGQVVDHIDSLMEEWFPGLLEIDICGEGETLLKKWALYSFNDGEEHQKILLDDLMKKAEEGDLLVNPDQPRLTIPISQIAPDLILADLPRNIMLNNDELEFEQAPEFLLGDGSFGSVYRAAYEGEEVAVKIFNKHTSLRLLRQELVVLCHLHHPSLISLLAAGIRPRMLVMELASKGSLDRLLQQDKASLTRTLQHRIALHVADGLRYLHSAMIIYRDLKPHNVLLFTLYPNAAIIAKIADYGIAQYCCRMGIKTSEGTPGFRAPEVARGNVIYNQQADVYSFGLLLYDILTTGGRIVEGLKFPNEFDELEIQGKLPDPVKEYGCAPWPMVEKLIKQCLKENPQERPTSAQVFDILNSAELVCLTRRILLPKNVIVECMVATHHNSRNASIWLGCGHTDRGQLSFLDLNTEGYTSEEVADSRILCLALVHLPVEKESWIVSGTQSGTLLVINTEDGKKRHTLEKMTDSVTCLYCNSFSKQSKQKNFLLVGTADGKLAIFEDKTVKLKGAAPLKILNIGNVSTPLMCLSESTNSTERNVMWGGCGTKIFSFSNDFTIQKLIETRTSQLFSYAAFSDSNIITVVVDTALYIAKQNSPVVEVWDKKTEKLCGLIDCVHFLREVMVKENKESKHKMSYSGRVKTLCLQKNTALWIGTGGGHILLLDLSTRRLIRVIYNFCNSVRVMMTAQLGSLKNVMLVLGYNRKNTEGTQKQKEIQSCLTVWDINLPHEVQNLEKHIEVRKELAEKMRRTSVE
T1 sequence (Q14289 whole entry): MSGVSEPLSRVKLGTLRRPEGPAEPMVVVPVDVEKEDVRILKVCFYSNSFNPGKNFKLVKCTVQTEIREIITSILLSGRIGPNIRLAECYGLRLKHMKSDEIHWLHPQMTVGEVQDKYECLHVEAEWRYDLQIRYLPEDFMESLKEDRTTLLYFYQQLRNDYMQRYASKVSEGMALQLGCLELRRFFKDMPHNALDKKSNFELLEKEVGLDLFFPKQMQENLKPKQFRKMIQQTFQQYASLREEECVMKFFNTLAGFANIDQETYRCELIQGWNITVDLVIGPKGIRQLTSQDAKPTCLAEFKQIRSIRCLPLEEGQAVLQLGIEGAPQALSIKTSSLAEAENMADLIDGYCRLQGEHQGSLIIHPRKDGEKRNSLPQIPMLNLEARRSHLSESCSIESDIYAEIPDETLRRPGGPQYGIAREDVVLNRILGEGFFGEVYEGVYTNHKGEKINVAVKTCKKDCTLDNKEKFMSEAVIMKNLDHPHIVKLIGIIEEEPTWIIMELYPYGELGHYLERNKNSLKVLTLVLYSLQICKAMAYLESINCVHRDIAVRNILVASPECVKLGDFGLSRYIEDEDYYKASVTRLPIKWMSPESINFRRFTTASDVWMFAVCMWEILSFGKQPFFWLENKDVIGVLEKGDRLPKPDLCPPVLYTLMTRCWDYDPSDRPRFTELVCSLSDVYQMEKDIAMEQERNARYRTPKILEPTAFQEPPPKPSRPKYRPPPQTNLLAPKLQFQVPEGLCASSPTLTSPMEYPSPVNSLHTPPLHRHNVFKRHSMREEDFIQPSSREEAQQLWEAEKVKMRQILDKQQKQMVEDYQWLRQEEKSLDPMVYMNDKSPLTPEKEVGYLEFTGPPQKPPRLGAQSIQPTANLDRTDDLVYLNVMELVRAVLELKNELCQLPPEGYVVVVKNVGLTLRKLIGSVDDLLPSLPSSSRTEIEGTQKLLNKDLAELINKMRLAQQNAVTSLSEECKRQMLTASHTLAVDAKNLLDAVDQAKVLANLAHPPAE
T2 sequence (Q05397 376-1052 limits assumed): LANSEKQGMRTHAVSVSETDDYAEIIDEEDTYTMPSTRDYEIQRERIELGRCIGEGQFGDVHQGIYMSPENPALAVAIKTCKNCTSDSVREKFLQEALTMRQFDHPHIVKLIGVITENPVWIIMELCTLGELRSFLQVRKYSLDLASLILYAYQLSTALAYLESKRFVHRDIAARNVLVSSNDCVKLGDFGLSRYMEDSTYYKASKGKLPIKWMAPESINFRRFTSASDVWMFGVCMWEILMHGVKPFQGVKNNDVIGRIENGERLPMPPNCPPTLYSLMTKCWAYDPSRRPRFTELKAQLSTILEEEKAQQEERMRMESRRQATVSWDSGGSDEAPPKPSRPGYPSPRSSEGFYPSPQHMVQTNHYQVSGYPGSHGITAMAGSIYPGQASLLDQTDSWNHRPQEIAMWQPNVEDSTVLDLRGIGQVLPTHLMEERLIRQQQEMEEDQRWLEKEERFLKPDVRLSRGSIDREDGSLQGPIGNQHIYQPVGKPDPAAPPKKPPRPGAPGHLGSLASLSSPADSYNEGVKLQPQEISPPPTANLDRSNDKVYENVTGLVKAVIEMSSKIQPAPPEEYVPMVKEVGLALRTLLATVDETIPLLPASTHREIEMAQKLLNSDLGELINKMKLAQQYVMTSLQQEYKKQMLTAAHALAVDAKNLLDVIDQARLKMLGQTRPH

`COc1cc(Nc2ncc(F)c(-n3cc(C)c(CO)c3)n2)cc(OC)c1` [Compound 16, (1-(2-(3,5-dimethoxy-phenylamino)-5-fluoro-pyrimidin-4-yl)-4-methyl-1H-pyrrol-3-yl)methanol] showed an inhibition at 1 µM (PYK2) of 84.9%, an inhibition at 1 µM (FAK) of 34.1% and an inhibition at 1 µM (ZAP70) of 31.9%. It also gave an inhibition at 1 µM (SYK) of 80.7%.
With `Cc1cn(-c2nc(Nc3ccc(N4CC[C@H](O)C4)c(C)c3)ncc2C)cc1CO` [Compound 24, (S)-1-(4-(4-(3-(hydroxyl-methyl)-4-methyl-1H-pyrrol-1-yl)-5-methyl-pyrimidin-2-ylamino)-2-methylphenyl)pyrrolidin-3-ol] the IC50 (FLT3) was 6.8 nM, the IC50 (JAK2) was 1.6 nM and the “inhibition level compared with Sorafenib” value (HEL cells; HEL) was “greater than those exhibited by Sorafenib”. For the same compound, the IC50 (HEL cells) was 229 nM and the IC50 (RET) was 40.4 nM.
For `Cc1cc(C)cc(Nc2nccc(-n3cc(C(=O)N(C)CCO)c(C)n3)n2)c1` [Compound 29, 1-(2-(3,5-dimethylphenylamino)pyrimidin-4-yl)-N-(2-hydroxyethyl)-N,3-dimethyl-1H-pyrazole-4-carboxamide], the inhibition at 1 µM (FLT3; at 1 μM concentration) was 53%, the inhibition at 1 µM (LRRK2) was 31.4% and the inhibition at 1 µM (RET; at 1 μM concentration) was 42%.
Work on `Cc1cc(C)cc(Nc2nccc(-n3cc(C(=O)N4CC[C@@H](O)C4)c(C)n3)n2)c1` [Compound 32, (R)-(1-(2-(3,5-dimethylphenylamino)pyrimidin-4-yl)-3-methyl-1H-pyrazol-4-yl)(3-hydroxypyrrolidin-1-yl)methanone] yielded an inhibition at 1 µM (JAK2; at 1 μM concentration) of 40%, an inhibition at 1 µM (LRRK2) of 44.3% and an IC50 (RET) of 51.3 nM.
In the case of `Cc1cc(C)cc(Nc2nccc(-n3cc(C)c(CN4CC[C@@H](O)C4)c3)n2)c1` [Compound 41, (R)-1-((1-(2-(3,5-dimethylphenylamino)pyrimidin-4-yl)-4-methyl-1H-pyrrol-3-yl)methyl)pyrrolidin-3-ol], the inhibition at 1 µM (PYK2) is reported as 30.7%, the inhibition at 1 µM (FAK) is reported as 13.9% and the inhibition at 1 µM (SYK) is reported as 99.3%.
With `COc1cc(Nc2ncc(C)c(-n3cc(C)c(CN4CC(O)C4)c3)n2)cc(OC)c1OC` [Compound 91, 1-((4-methyl-1-(5-methyl-2-(3,4,5-trimethoxyphenylamino)pyrimidin-4-yl)-1H-pyrrol-3-yl)methyl)azetidin-3-ol] the IC50 (FLT3) was 0.4 nM, the IC50 (JAK2) was 36.5 nM and the IC50 (LRRK2) was 424 nM. For the same compound, the IC50 (RET) was 5.2 nM, the “inhibition level compared with Vandetinib and Sunitinib” value (MV4-11 cells; FLT3 ITD induced cancer cell line (MV4-11)) was “greater than those exhibited by Vandetinib and Sunitinib” and the IC50 (MV4-11 cells) was 1.5 nM.
`COc1cc(Nc2ncc(C)c(-n3cc(C)c(CN4CCCN(C(=O)C(C)(C)C)CC4)c3)n2)cc(OC)c1OC` [Compound 97, 2,2-dimethyl-1-(4-((4-methyl-1-(5-methyl-2-(3,4,5-trimethoxyphenylamino)pyrimidin-4-yl)-1H-pyrrol-3-yl)methyl)-1,4-diazepan-1-yl)propan-1-one] showed an IC50 (FLT3) of 3.6 nM, an IC50 (JAK2) of 65.1 nM and an IC50 (RET) of 35.8 nM. For the same compound, the IC50 (MV4-11 cells) was 79.2 nM.
Compound `CNC(=O)c1cc(Oc2ccc(NC(=O)Nc3ccc(Cl)c(C(F)(F)F)c3)cc2)ccn1` [Sorafenib, reference compound] has an IC50 (HEL cells) greater than 1000 nM.
